Source: patent US20220142959A1, “LEUCINE, ACETYL LEUCINE, AND RELATED ANALOGS FOR TREATING DISEASE” (priority 2019, published 2022)

Tests used:
[1] = tested on: M1-type and M2-type inflammatory markers (mRNA); assay: Real time rt-PCR of inflammatory markers in TBI mouse cortex; assay type: in vivo, mice; settings: for expression of inflammatory markers / pro-inflammatory mediators (overall): CCI induced TBI in mice
Procedure: Controlled cortical impact (CCI) induced TBI was performed in male C57BL6/J mice (20-25 g). Briefly, after a 10-mm midline incision was made over the skull, the skin and fascia were retracted, and a 4-mm craniotomy was made on the central aspect of the left parietal bone of mice under surgical anesthesia (2-3% isoflurane evaporated in a gas mixture containing 70% N20 and 30% 02). Moderate injury was induced in the exposed brain by a custom microprocessor-controlled and compressed air driven pneumatic impactor of 3.5 mm diameter tip with the impact velocity of 6 m/s and a deformation depth of 2 mm.
N-Acetyl-L-Leucine (“NAL” or “NALL”) was dissolved in ethanol to prepare a 50 mg/ml solution which was then diluted in water to give a 10 mg/ml solution. About 0.25 ml of the NAL solution (10 mg/ml) was orally administered in mice at a […] (2.5 mg NAL/25 g mouse) via oral gavage each day after CCI induced TBI for 4 days. Mice were also fed with NAL at 0.5 mg/kg chow powder chow mixed with diet gel for up to 7 days after injury.
The expression level of M1-type pro-inflammatory markers Nos2, Nlrp3, IL-1β, TNF, IFNβ and Nox2 in the perilesional area in TBI mouse cortices were determined by real time rt-PCR. The expression level of M2-type markers Socs3, YM-1, IL4ra and Arg-1 in cortical tissue was also determined.
Total RNA isolated from the ipsilateral cortex using miRNeasy Mini Kit (Qiagen, Cat No. 217004) was converted into cDNA using High Capacity RNA to cDNA kit (Applied Biosystem, Cat. No. 4387406) as per manufacturer's instruction. cDNA TaqMan® Universal Master Mix II (Applied Biosystems, Cat. No. 4440040) was used to perform quantitative real-time PCR amplification as described previously using 20× TaqMan® Gene Expression Assay (Applied Biosystems) for following mouse genes were used: Gapdh (Mm99999915_g1), NLRP3 (Mm00840904_m1), NOX2 (Mm01287743_m1), iNOS (Mm00440502_m1), TNFα (Mm00443258_m1), IFnβ1 (Mm00439552_s1), IL-10 (Mm01288386_m1), IL1b (Mm00434228_m1), Arg1 (Mm00475988_m1), SOCS3 (Mm00545913_s1), YM-1 (Mm00657889_mH) and IL-4ra (Mm01275139_m1) (Applied Biosystems). Reactions were amplified and quantified using a 7900HT Fast Real-Time PCR System and corresponding software (Applied Biosystems). Relative gene expression normalized to Gapdh was calculated based on the comparative Ct method.

[2] = tested on: rat primary cortical neurons (NE and NG cultures); assay: Truncated tau and neuronal markers in neuron-enriched and neuron-glia cultures; assay type: cell-based
Procedure: FIG. 20 is eight Western blots of tau (5E2), synaptophysin and βIII-tubulin in rat primary cortical neurons (neuron-enriched (NE) and neuron-glia (NG) cultures) in the absence and presence of ADLL, ALL, ADL, DLL, LL, DL, and LLE (1 mM, 5 days).
The efficacy of ADLL, ALL, ADL, DLL, LL, DL, and LLE in reducing truncated tau levels in neuron-glia (NG) cultures was investigated. The results of this study are provided in FIGS. 20-24 One aim of this study was to determine whether ADLL, ALL, ADL, DLL, LL, DL, and LLE conferred intrinsic neuroprotection by sustaining neuronal function under conditions of cellular overgrowth, or whether they acted indirectly through the non-autonomous modulation of glial cells. Irrespective of whether the compounds acted directly or indirectly on neurons, preventing the generation of truncated tau confers beneficial effects to neuronal integrity.
Cultures were treated for five days (DIV 9-14) with 1 mM of ADLL, ALL, ADL, DLL, LL, DL, or LLE, and were subsequently assessed for a number of neuron-specific markers that could provide a readout on neuronal health: βIII-tubulin, full-length tau, truncated tau (antibody 5E2) and synaptophysin. ADLL, ALL, ADL, DLL, LL, DL, and LLE were well-tolerated in NE and NG cultures, as evidenced by consistently equal levels of synaptophysin and βIII-tubulin detected across untreated (control) and drug-treated samples (FIGS. 20, 23, and 24). None of ADLL, ALL, ADL, DLL, LL, DL, and LLE reduced basal levels of truncated tau in NG cultures at DIV14 (FIG. 20 and FIG. 22).

[3] = tested on: CD68 positive activated microglia; assay: CD68 positive activated microglia in cerebellum of Npc1−/− mice; assay type: in vivo; settings: 59 days of age, compared to Npc1−/− UT
Description: FIG. 46 is an image showing cerebellar Purkinje cell loss progressing from anterior to posterior lobes and microglial activation in untreated Npc1^−/− mice and Npc1^−/− mice treated with ADLL, ALL, and ADL. Cerebellums were stained with calbindin-b (Purkinje cells) or CD68 (activated microglia).
FIG. 48 is a scatter graph showing frequency of CD68 positive activated microglia at 59 days of age in untreated Npc1^−/− mice and Npc1^−/− mice treated with ADLL, ALL, and ADL. CD68 cell density was measured in the cerebellum. n=5 animals per group. Mean±SD, *** p<0.0009 (one-way ANOVA).
The combination of increased survival of neurons and a less inflammatory environment in the brain could improve brain function, quality of life, and delay the progression of disease in human subjects.

[4] = NAL fed mouse cortices as compared to sham mice
[5] = cortices of NAL fed vs vehicle fed TBI mice

CC(=O)N[C@@H](CC(C)C)C(=O)O [ALL, acetyl-L-leucine]
expression of inflammatory markers / pro-inflammatory mediators (overall) [1]: modulates the expression of pro-inflammatory mediators | expression of inflammatory markers / pro-inflammatory mediators (overall) ([1]; listed as NAL): reduces expression of several inflammatory markers | levels of IL-4ra [1, 4]: remained unaltered | levels of Socs3 [1, 4]: remained unaltered | levels of YM-1 [1, 4]: remained unaltered | mRNA level of IFNβ [1, 5]: decrease | mRNA level of Nox2 [1, 5]: decrease | levels of Arg-1 ([1]; injured mouse cortex, NAL vs vehicle fed TBI mice): lowered | tolerability (levels of synaptophysin and βIII-tubulin vs untreated control) ([2]; NE and NG cultures, 1 mM, five days (DIV 9-14)): well-tolerated | reduction of basal levels of truncated tau ([2]; NG cultures at DIV14, 1 mM, five days): None | reduction of frequency of CD68 positive activated microglia [3]: 20%
